The source made the active and inactive calls.
Key:
[1] = target: T1, Endoribonuclease toxin MazF (Escherichia coli K-12, UniProt P0AE70); assay: activation of MazEF endoribonuclease cleavage – biochemical, fluorescence, single-stranded RNA substrate, uHTS hits, dose response (AID 588481); assay type: functional
T1 sequence (P0AE70 whole entry): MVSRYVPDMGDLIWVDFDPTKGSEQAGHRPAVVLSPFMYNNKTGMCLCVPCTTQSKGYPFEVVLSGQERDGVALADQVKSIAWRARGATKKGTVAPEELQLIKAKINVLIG

[2] = target: T1, Endoribonuclease toxin MazF; assay: substrate-only fluorescence increase artefacts – biochemical, single-stranded RNase substrate, counter-screen for MazEF activator project, dose response (AID 588502); assay type: functional
[3] = target: 72 kDa type IV collagenase (Homo sapiens, UniProt P08253); assay: Dose Response validation of uHTS RPN11 inhibitor hits using a MMP-2 Fluorescence assay.; assay type: functional
Chain of 72 kDa type IV collagenase (P08253 whole entry): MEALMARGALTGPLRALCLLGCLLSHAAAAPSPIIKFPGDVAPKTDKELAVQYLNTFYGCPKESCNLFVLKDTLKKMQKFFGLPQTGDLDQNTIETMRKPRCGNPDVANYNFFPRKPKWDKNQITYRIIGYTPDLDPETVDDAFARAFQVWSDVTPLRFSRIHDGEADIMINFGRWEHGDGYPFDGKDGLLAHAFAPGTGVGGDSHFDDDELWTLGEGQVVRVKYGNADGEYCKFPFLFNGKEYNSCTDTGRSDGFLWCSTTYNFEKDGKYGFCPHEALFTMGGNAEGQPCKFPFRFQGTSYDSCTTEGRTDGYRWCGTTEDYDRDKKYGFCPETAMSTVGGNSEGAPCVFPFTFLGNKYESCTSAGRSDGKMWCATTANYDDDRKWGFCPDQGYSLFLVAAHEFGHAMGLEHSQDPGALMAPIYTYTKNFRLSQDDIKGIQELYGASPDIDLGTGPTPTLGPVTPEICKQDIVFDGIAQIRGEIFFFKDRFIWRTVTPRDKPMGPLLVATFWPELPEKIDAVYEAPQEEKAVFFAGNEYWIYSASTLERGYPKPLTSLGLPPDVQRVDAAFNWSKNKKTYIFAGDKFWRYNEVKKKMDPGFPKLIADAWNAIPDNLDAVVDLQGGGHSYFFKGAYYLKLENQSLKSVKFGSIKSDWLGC

[4] = target: 26S proteasome non-ATPase regulatory subunit 14 (Homo sapiens, UniProt O00487); assay: inhibition of proteasome subunit RPN11 – biochemical, fluorescence polarization, uHTS hits, confirmation (AID 602368); assay type: functional
Chain of 26S proteasome non-ATPase regulatory subunit 14 (O00487 whole entry): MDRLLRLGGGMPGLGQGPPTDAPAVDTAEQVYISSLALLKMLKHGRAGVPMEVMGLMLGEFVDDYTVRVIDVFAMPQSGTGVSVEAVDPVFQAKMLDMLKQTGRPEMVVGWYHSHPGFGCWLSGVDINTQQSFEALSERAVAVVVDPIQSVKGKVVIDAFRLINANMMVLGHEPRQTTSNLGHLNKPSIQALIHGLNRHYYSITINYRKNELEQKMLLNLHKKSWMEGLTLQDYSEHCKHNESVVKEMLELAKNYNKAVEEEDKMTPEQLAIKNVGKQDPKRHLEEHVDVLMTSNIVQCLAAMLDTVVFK

[5] = target: Prothrombin (Bos taurus, UniProt P00735); assay: thrombin protease inhibitors – biochemical, fluorescence polarization, uHTS hits, dose response (AID 602369); assay type: functional
[6] = target: Cytochrome P450 2C19 (Homo sapiens, UniProt P33261); assay: Cytochrome panel assay with activity outcomes. Panel member name: p450-cyp2c19 Compounds with AC50 equal or less than 10 uM are considered active; assay type: functional; conditions: read-out: AC50
Chain of Cytochrome P450 2C19 (P33261 whole entry): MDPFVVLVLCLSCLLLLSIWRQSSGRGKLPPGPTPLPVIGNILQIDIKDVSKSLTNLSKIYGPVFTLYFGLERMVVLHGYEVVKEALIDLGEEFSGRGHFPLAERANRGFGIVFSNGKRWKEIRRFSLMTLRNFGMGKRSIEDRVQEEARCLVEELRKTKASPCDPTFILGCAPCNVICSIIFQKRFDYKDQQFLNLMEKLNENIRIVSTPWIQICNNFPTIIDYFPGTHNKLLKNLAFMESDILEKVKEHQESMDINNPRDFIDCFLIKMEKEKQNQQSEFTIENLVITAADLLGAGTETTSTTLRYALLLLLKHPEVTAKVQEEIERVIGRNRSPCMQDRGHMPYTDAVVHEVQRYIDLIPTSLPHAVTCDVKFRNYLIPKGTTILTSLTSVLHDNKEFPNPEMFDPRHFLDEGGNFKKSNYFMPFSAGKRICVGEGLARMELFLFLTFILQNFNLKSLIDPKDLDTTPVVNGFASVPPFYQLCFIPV

[7] = target: Cytochrome P450 2C9 (Homo sapiens, UniProt P11712)
Chain of Cytochrome P450 2C9 (P11712 whole entry): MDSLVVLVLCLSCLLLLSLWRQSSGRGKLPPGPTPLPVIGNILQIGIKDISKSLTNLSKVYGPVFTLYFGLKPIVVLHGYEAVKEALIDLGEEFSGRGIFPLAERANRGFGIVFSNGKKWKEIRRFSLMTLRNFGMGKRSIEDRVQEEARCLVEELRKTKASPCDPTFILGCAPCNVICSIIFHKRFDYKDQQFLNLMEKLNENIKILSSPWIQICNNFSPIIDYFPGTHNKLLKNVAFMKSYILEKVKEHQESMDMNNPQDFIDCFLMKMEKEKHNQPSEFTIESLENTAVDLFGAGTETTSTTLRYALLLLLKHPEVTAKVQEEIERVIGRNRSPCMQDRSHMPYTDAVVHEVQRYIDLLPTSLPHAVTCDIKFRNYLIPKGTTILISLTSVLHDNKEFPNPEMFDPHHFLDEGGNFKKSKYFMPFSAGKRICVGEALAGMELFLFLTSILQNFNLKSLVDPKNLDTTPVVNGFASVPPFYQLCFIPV

[8] = target: Ras and Rab interactor 1/Tyrosine-protein kinase ABL1 (Homo sapiens, UniProt P00519+Q13671); assay: biochemical; assay type: functional;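 note: biochemical TR-FRET dose-response test measuring inhibition of binding between Rin1 and Abl proteins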
Chain of Ras and Rab interactor 1/Tyrosine-protein kinase ABL1 (P00519 whole entry): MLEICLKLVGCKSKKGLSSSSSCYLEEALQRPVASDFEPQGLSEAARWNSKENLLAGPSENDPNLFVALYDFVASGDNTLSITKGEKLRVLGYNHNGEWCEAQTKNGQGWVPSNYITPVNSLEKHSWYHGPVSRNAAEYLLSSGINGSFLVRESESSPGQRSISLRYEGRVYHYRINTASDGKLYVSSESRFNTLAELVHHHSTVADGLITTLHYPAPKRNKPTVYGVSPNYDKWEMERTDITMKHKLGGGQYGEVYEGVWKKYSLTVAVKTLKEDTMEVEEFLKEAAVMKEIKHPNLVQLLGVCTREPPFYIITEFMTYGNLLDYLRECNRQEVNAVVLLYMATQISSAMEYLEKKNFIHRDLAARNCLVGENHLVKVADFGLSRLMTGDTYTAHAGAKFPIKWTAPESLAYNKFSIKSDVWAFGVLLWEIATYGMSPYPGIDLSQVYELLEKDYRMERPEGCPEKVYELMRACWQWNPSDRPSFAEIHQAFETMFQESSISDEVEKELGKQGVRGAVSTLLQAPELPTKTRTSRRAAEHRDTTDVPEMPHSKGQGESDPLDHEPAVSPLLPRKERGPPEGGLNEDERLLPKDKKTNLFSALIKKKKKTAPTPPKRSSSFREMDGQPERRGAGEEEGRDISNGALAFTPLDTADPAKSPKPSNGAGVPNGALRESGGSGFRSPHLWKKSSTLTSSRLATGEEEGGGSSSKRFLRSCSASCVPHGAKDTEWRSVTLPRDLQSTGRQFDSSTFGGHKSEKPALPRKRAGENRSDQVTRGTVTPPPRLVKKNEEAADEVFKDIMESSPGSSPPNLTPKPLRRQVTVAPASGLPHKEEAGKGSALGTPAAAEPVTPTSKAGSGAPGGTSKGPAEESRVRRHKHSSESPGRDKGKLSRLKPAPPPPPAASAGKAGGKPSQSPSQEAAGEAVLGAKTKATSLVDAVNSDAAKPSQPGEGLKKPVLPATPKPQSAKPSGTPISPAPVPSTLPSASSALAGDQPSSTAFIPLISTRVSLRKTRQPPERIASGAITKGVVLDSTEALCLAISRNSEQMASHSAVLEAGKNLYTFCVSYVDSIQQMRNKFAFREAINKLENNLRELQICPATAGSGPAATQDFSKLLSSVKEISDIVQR
Chain of Ras and Rab interactor 1/Tyrosine-protein kinase ABL1 (Q13671 whole entry): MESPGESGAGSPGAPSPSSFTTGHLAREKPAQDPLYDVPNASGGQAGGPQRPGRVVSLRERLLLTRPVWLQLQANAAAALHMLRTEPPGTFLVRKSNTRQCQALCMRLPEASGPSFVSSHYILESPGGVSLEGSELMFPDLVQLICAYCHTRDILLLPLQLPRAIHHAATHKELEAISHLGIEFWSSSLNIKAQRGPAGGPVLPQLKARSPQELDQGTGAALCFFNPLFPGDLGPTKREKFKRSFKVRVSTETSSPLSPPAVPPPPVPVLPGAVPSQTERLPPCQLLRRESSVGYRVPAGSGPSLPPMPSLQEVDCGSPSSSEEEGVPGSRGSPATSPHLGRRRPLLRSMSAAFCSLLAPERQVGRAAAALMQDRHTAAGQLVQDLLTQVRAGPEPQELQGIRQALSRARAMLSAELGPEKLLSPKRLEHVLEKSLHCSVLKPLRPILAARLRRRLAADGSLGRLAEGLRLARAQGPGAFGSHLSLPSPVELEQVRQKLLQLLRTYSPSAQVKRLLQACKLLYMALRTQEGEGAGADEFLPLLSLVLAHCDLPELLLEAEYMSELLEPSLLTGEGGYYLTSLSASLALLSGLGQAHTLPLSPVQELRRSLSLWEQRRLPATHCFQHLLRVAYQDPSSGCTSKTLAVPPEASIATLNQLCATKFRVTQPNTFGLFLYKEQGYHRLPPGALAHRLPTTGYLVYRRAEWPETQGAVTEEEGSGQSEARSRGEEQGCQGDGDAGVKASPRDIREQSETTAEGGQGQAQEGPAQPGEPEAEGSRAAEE

[9] = target: Peroxisome proliferator-activated receptor gamma/Nuclear receptor corepressor 2 (Homo sapiens, UniProt P37231+Q9Y618); assay: Counterscreen for NR2E3 inverse agonists: TR-FRET-based biochemical high throughput dose response assay to identify inverse agonists of the interaction between peroxisome proliferator-activated receptor gamma (PPARg) and nuclear receptor co-repressor 2 (NCOR2).; assay type: functional
[10] = target: Photoreceptor-specific nuclear receptor (Homo sapiens, UniProt Q9Y5X4); assay: ligands suppressing NR2E3 nuclear receptor activity – biochemical, TR-FRET, dose response (AID 463256); assay type: functional
Chain of Photoreceptor-specific nuclear receptor (Q9Y5X4 whole entry): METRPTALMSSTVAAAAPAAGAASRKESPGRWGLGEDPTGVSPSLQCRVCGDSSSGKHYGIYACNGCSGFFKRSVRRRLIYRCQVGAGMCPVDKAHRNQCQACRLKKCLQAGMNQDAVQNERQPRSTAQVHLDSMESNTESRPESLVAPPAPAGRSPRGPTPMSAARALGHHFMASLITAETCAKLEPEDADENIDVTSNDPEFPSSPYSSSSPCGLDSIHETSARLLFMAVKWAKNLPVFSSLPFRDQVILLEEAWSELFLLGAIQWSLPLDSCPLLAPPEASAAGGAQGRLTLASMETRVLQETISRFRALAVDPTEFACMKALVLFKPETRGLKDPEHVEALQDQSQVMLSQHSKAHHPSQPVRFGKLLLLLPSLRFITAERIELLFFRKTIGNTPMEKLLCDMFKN

[11] = target: Nonstructural protein 1 (Influenza A virus, UniProt Q194T2); assay type: functional, Influenza A virus (A/California/07/2009(H1N1))
Chain of Nonstructural protein 1 (Q194T2 whole entry): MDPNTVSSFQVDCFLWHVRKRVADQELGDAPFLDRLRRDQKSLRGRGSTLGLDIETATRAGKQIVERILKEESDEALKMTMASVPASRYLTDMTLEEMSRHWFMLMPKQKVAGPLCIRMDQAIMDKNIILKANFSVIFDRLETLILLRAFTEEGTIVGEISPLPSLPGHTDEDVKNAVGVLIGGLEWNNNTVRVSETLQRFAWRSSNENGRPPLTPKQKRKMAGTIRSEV

[12] = target: T2, Histone-lysine N-methyltransferase NSD2 (Homo sapiens, UniProt O96028); assay type: biochemical
T2 sequence (O96028 whole entry): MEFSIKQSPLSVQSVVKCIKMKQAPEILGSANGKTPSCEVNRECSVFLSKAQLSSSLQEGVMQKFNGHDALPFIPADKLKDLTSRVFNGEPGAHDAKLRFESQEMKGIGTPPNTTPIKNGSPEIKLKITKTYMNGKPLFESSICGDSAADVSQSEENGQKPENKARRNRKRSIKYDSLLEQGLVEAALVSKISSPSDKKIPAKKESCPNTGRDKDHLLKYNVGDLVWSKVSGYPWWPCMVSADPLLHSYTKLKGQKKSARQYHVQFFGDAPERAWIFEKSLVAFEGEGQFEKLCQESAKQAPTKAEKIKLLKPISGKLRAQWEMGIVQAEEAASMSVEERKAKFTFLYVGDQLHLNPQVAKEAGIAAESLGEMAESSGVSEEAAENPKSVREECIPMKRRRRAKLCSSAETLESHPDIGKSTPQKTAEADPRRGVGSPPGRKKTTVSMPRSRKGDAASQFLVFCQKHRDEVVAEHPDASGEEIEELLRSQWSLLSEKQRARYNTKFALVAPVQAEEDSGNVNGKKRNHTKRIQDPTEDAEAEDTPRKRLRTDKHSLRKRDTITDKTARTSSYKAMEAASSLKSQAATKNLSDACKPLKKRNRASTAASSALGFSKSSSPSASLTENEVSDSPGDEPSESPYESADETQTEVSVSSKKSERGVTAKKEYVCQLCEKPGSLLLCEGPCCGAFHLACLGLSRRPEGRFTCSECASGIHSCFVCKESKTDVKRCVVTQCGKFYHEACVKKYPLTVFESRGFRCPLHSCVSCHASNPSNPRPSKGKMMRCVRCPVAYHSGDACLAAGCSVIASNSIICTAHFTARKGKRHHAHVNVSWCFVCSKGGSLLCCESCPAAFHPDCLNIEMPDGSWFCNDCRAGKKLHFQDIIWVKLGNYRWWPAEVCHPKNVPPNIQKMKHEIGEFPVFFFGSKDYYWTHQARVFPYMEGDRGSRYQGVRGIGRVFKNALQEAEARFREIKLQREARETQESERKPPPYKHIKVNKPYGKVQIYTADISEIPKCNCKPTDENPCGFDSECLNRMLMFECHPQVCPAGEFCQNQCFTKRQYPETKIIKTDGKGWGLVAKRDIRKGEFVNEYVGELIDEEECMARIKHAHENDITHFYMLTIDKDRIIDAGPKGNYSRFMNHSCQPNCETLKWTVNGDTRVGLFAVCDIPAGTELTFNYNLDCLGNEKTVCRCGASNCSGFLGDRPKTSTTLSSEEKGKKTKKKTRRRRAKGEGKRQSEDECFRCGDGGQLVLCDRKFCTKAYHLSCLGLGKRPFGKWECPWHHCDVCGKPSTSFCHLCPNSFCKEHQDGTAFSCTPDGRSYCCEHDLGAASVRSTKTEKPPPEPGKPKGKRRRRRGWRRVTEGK

[13] = target: T3, Corticotropin-releasing factor receptor 2/Corticotropin-releasing factor-binding protein (Homo sapiens, UniProt P24387+Q13324); assay: activators of CRF receptor 2 with binding protein – uHTS hits, confirmation (AID 602473); assay type: functional; conditions: read-out: EC50_Mean
T3 sequence (Q13324 whole entry): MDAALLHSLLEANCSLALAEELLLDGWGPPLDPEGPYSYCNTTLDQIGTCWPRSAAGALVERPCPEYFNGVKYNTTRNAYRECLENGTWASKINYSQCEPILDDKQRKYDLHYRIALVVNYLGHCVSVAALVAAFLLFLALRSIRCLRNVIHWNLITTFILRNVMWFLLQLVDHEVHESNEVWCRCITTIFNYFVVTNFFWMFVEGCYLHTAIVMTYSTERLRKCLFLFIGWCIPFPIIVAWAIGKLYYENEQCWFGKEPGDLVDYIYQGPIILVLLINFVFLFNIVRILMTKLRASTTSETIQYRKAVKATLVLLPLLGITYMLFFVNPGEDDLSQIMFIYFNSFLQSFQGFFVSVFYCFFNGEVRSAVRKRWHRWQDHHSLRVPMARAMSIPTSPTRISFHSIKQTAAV
T3 sequence (P24387 whole entry): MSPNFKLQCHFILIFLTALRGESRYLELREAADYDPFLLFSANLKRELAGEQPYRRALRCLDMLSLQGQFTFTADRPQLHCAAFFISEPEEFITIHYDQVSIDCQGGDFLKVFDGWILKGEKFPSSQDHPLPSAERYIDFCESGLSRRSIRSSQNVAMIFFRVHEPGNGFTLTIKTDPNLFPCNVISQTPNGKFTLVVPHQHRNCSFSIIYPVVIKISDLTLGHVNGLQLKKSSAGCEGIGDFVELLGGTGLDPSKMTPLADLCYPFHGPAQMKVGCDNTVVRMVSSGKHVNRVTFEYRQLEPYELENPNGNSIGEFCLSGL

Structure (SMILES)	EC50 [1]	EC50 [2]	IC50 [3]	IC50 [4]	IC50 [5]	IC50 [8]	further results
Nc1c(C(=O)Nc2ccccc2)sc2nc3c(c(-c4ccco4)c12)CCC3	11.3 µM (active)	> 99 µM (inactive)	–	–	–	–	–
O=C(NN=C1c2ccccc2-c2ccccc21)c1ccccn1	–	–	> 100 µM (inactive)	24.4 µM (active)	> 100 µM (inactive)	–	AC50 [6]: 2.82 µM (inconclusive); AC50 [7]: 7.08 µM (inconclusive)
CN(C(=O)c1ccc(NC(=O)Cc2ccc(NC(=O)C3CCN(C(=O)c4ccccc4)CC3)cc2)cc1)C1CC1	–	–	–	–	–	0.407 µM (active)	–
O=C(Nc1nc(-c2nc3ccccc3s2)cs1)c1ccco1	–	–	> 100 µM (inactive)	10.1 µM (active)	75.1 µM (active)	–	IC50 [9]: 3.92 µM (active); IC50 [10]: 2.44 µM (active)
CC1NC(=O)NC1CCCCCC(=O)Nc1ccc(F)cc1 (centres undefined)	–	–	–	–	–	0.0187 µM (active)	IC50 [11]: 0.979 µM (active); AC50 [12]: 0.113 µM (active)
Cn1c(=O)c2[nH]c(-c3ccccc3Cl)c(O)c2n(C)c1=O	55.6 µM (inactive)	16 µM (active)	–	–	–	–	EC50 [13]: > 53 µM (inactive)

— ChEMBL document CHEMBL1201862, “PubChem BioAssay data set” (2004)
